In patent publication US7951816B2, “Compound containing basic group and use thereof” (Ono Pharmaceutical Co., Ltd., priority 2004, dated 2011):

Experiments:
CXCR4 = biological target: T1, CXCR4 (Homo sapiens, UniProt P61073); experiment: Study for inhibition of binding human SDF-1 to CEM cells (125I-SDF-1); conditions: 125I-SDF-1 binding to CEM cells
T1 construct: a human T cell strain in which CXCR4 is known to be expressed; endogenous in cells; host or cells: CEM cells (human T cell line), whole cells
T1 sequence (P61073 whole entry): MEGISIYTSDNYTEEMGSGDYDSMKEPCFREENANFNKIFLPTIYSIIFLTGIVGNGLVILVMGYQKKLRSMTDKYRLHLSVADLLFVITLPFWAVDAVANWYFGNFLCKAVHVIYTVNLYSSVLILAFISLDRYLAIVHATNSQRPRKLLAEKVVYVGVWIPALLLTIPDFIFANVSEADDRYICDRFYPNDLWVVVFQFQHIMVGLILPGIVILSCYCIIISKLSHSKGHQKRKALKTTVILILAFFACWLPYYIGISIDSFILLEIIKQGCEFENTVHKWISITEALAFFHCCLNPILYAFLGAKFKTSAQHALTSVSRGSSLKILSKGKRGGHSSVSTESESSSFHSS
Excerpt: Specifically, as a system of screening a compound that inhibits the binding between SDF-1 and CXCR4, for example a system of measuring the binding between iodine-labeled SDF-1 and a human T cell strain in which CXCR4 is known to be expressed is operable. The identical idea is possible since macrophage (R5) HIV and RANTES, MIP-1α, and MIP-1β all bind to CCR5.
Study for Inhibition of Binding Human SDF-1 to CEM Cells
To human T cell strain CEM cells in a binding buffer (containing HEPES and BSA), the test compound and ^125I-SDF-1 (NEN) were added and the mixture was incubated at 4° C. for 60 minutes. The reacted CEM cells were rapidly filtrated with a GF/B membrane filter plate (Packard) to adsorb. The plate was washed with PBS three times and then dried. Microscint+20 (Packard) was added thereto. An amount of the radioactivity bound to the CEM cells was measured using Top Count (Packard) and inhibition (%) of the test compound was calculated according to the following equation: Inhibition={(Et−Ea)/(Et−Ec)}×100
Et: amount of radioactivity when the test compound is not added,
Ec: amount of radioactivity when non-radioactive SDF-1 (Pepro Tech) is added in an amount of 1000 times as much as ^125I-SDF-1 as a test compound, and
Ea: amount of radioactivity when the test compound is added.

[1] = Influence on blood pressure and heart rate in urethane-anesthetized rat, intravenous cumulative dosing; type: in vivo
Excerpt: Measuring of Influence of a Compound of the Present Invention on Blood Pressure and Heart Rate
A rat was anesthetized with urethane (1.2 g/kg subcutaneous administration). After neck midline dissection, a catheter for measuring blood pressure was inserted into a right common carotid artery. Then, after dissecting inguinal region, a catheter for chemical injection was inserted into a femoral vein and fixed. A catheter for measurement of blood pressure was connected to a pressure transducer and then the pressure waveform was recorded on a thermal writing pen recorder through an amplifier for strain compression (AP-641G (manufactured by NIHON KOHDEN CORPORATION)). In this case, regarding a heart rate, a value through an cardiotachometer (AT-601G (manufactured by NIHON KOHDEN CORPORATION)) using the pressure waveform obtained from the amplifier for strain compression as a trigger was recorded on a thermal writing pen recorder. The test compound was dissolved in a 10% solubilizing agent/physiological saline solution (volume ratio of polyoxyethylene hydroxystearate:propylene glycol:physiological saline=7:3:190) so as to adjust the concentration to 0.1, 0.3, 1, 3 or 10 mg/mL to prepare solutions. Each solution was intravenous administered at 1 mL/Kg through the […] over about 10 seconds. Accumulative administration of stepwise increasing of a dosage was carried out to an individual.

IC50 (CXCR4)	Compound	effect of decreasing blood pressure ([1]; 3 mg/kg or less)	rate of increase in the heart rate ([1]; 10 mg/kg)	influence on the heart rate ([1]; low dosage)
27 nM	CCCN(CCC)CCCCNCc1ccc(C(=O)N(Cc2ncc[nH]2)Cc2ncc[nH]2)cc1 [Compound 10, 4-({[4-(dipropylamino)butyl]amino}methyl)-N,N-bis(1H-imidazol-2-ylmethyl)benzamide]	–	–	–
–	CCCN(CCC)CCCCNCc1ccc(CN(Cc2ncc[nH]2)C(=O)c2ncc[nH]2)cc1 [Compound 19, N-[4-({[4-(dipropylamino)butyl]amino}methyl)benzyl]-N-(1H-imidazol-2-ylmethyl)-1H-imidazole-2-carboxamide]	not recognized	2%	no influence on the heart rate
